# Tests used:
# Spodoptera frugiperda = Spodoptera frugiperda - spray test; type: in vivo; details: 100 g/ha, maize leaf discs, after 7 days
# Description: Solvent: 78.0 parts by weight of acetone
# • 1.5 parts by weight of dimethylformamide Emulsifier: alkylaryl polyglycol ether
# To produce an appropriate active ingredient formulation, 1 part by weight of active ingredient is dissolved using the specified parts by weight of solvent and made up with water containing an emulsifier concentration of 1000 ppm until the desired concentration is attained. To produce further test concentrations, the preparation is diluted with emulsifier-containing water.
# Leaf discs of maize (Zea mays) are sprayed with an active ingredient formulation of the desired concentration and, after drying, populated with caterpillars of the armyworm (Spodoptera frugiperda).
# After 7 days, efficacy in % is determined. 100% means that all the caterpillars have been killed; 0% means that no caterpillars have been killed.
# Boophilus microplus = Boophilus microplus - injection test; type: in vivo; details: 20 μg/animal, injected into engorged adult female cattle ticks, after 7 days
# Description: Solvent: dimethyl sulphoxide
# To produce an appropriate active ingredient formulation, 10 mg of active ingredient are mixed with 0.5 ml of solvent and the concentrate is diluted with solvent to the desired concentration.
# 1 μl of the active ingredient solution is injected into the abdomen of 5 engorged adult female cattle ticks (Boophilus microplus). The animals are transferred into dishes and kept in a climate-controlled room.
# Efficacy is assessed after 7 days by laying of fertile eggs. Eggs which are not visibly fertile are stored in a climate-controlled cabinet until the larvae hatch after about 42 days. An efficacy of 100% means that none of the ticks has laid any fertile eggs; 0% means that all the eggs are fertile.
smiles,measurement,setting,value
"Cc1cc(C(F)(C(F)(F)F)C(F)(F)F)cc(C)c1-c1cn(-c2ccc(Cl)c(C(=O)NC3CC3)c2)nn1 [I-T48-1, 2-chloro-N-cyclopropyl-5-[4-[2,6-dimethyl-4-[1,2,2,2-tetrafluoro-1-(trifluoromethyl)ethyl]phenyl]triazol-1-yl]benzamide]",efficacy (caterpillars killed),Spodoptera frugiperda,100%
same,efficacy (no fertile eggs laid),Boophilus microplus,100%

# From patent publication US10836732B2, “Compounds for combating arthropods” (priority 2013, dated 2020)
